From US20220386606A1, “SPECIFICALLY SUBSTITUTED 3-PHENYL-5-SPIROCYCLOPENTYL-3-PYRROLIN-2-ONES AND THEIR USE AS HERBICIDES” (Bayer Aktiengesellschaft, priority 2019, published 2022)

Assays:
SETVI [1] = experiment: Pre-emergence herbicidal action against SETVI; assay type: in vivo, Setaria viridis; conditions: 320 g/ha, scored visually after 3 weeks vs untreated controls
Summary of the method: (§1)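 Percent activity (0% = like control, 100% = dead) read visually after a 3-week greenhouse period. Application: aqueous WP or EC formulations sprayed onto soil covering sown seeds, water rate 600 to 800 L/ha with 0.2% wetting agent.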

ALOMY [2] = experiment: Post-emergence herbicidal action against ALOMY; assay type: in vivo, Alopecurus myosuroides; conditions: 80 g/ha, visual assessment after about 3 weeks
Summary of the method: (§2)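 Herbicidal action is rated visually in percent against untreated controls, where 100% means dead plants and 0% means no difference. Ratings come about 3 weeks after foliar spraying of one-leaf-stage plants with aqueous WP or EC preparations plus 0.2% wetting agent at 600 to 800 l/ha.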

ECHCG [3] = experiment: Pre-emergence herbicidal action against ECHCG; assay type: in vivo, Echinochloa crus-galli; conditions: 320 g/ha, scored visually after 3 weeks vs untreated controls
Summary of the method: as §1

LOLRI [4] = experiment: Post-emergence herbicidal action against LOLRI; assay type: in vivo, Lolium rigidum; conditions: 80 g/ha, visual assessment about 3 weeks after treatment vs untreated controls
Summary of the method: as §2

ALOMY [5] = experiment: Pre-emergence herbicidal action against ALOMY; assay type: in vivo, Alopecurus myosuroides; conditions: 320 g/ha, scored visually after 3 weeks vs untreated controls
Summary of the method: as §1

DIGSA [6] = experiment: Post-emergence herbicidal action against DIGSA; assay type: in vivo, Digitaria sanguinalis; conditions: 80 g/ha, visual assessment about 3 weeks after treatment vs untreated controls
Summary of the method: as §2

MATIN = experiment: Pre-emergence herbicidal action against MATIN; assay type: in vivo; conditions: 320 g/ha
Source text: (§3) Seeds of monocotyledonous and dicotyledonous weed plants and crop plants are laid out in sandy loam soil in wood-fiber pots and covered with soil. The compounds of the invention, formulated in the form of wettable powders (WP) or as emulsion concentrates (EC), are then applied to the surface of the covering soil as aqueous suspension or emulsion at a water application rate equating to 600 to 800 L/ha with addition of 0.2% wetting agent.
(§4) After the treatment, the pots are placed in a greenhouse and kept under good growth conditions for the trial plants. The damage to the test plants is scored visually after a test period of 3 weeks by comparison with untreated controls (herbicidal activity in percent (%): 100% activity=the plants have died, 0% activity=like control plants).

SETVI [7] = experiment: Post-emergence herbicidal action against SETVI; assay type: in vivo, Setaria viridis; conditions: 80 g/ha, visual assessment about 3 weeks after treatment vs untreated controls
Summary of the method: as §2

VIOTR = experiment: Pre-emergence herbicidal action against VIOTR; assay type: in vivo, Viola tricolor; conditions: 320 g/ha
Summary of the method: as §1

DIGSA [8] = experiment: Pre-emergence herbicidal action against DIGSA; assay type: in vivo, Digitaria sanguinalis; conditions: 320 g/ha, scored visually after 3 weeks vs untreated controls
Summary of the method: as §1

ECHCG [9] = experiment: Post-emergence herbicidal action against ECHCG; assay type: in vivo, Echinochloa crus-galli; conditions: 80 g/ha, visual assessment about 3 weeks after treatment vs untreated controls
Summary of the method: as §2

AMARE = experiment: Pre-emergence herbicidal action against AMARE; assay type: in vivo, Amaranthus retroflexus; conditions: 320 g/ha
Summary of the method: as §1

AVEFA [10] = experiment: Post-emergence herbicidal action against AVEFA; assay type: in vivo, Avena fatua; conditions: 80 g/ha, visual assessment after about 3 weeks
Summary of the method: as §2

LOLRI [11] = experiment: Pre-emergence herbicidal action against LOLRI (Table 8, titled post-emergence at 320 g/ha); assay type: in vivo, Lolium rigidum; conditions: table stands in the pre-emergence section
Summary of the method: as §1

AVEFA [12] = experiment: Pre-emergence herbicidal action against AVEFA; assay type: in vivo, Avena fatua; conditions: 320 g/ha, scored visually after 3 weeks vs untreated controls
Summary of the method: as §1

VERPE = experiment: Pre-emergence herbicidal action against VERPE; assay type: in vivo, Veronica persica; conditions: 320 g/ha
Source text: as §3, §4

| SMILES | Pre-emergence action against SETVI in % (SETVI [1]) [%] | Post-emergence action against ALOMY in % (ALOMY [2]) [%] | Pre-emergence action against ECHCG in % (ECHCG [3]) [%] | Post-emergence action against LOLRI in % (LOLRI [4]) [%] | Pre-emergence action against ALOMY in % (ALOMY [5]) [%] | Post-emergence action against DIGSA in % (DIGSA [6]) [%] | Pre-emergence action against MATIN in % (MATIN) [%] | Post-emergence action against SETVI in % (SETVI [7]) [%] | Pre-emergence action against VIOTR in % (VIOTR) [%] | Pre-emergence action against DIGSA in % (DIGSA [8]) [%] | Post-emergence action against ECHCG in % (ECHCG [9]) [%] | Pre-emergence action against AMARE in % (AMARE) [%] | Post-emergence action against AVEFA in % (AVEFA [10]) [%] | Pre-emergence herbicidal action against LOLRI in % (LOLRI [11]) [%] | Pre-emergence action against AVEFA in % (AVEFA [12]) [%] | Pre-emergence action against VERPE in % (VERPE) [%] |
| --- | --- | --- | --- | --- | --- | --- | --- | --- | --- | --- | --- | --- | --- | --- | --- | --- |
| CC#Cc1cc(C)c(C2=C(O)C3(CCC(COCCC)C3)NC2=O)c(OC)c1 (stereo not drawn) [Example I-59] | 100 | 100 | 100 | 90 | 100 | 100 | 80 | 100 | 100 | 100 | 100 | 100 | 90 | 100 | – | – |
| C#CCOCC1CCC2(C1)NC(=O)C(c1c(F)cc(C#CC)cc1OC)=C2O (stereo not drawn) [Example I-75] | 100 | 90 | 90 | 90 | 90 | 90 | 90 | 100 | – | 100 | 100 | 80 | 90 | 100 | 100 | – |
| C#CCOCC1CCC2(C1)NC(=O)C(c1c(C)cc(C#CC)cc1OC)=C2O (stereo not drawn) [Example I-77] | 100 | 100 | 100 | 90 | 100 | 90 | 80 | 100 | – | 100 | 100 | 100 | 90 | 100 | 100 | – |
| CC#Cc1cc(C)c(C2=C(OC(=O)OCC)C3(CCC(COC)C3)NC2=O)c(OC)c1 (stereo not drawn) [Example P-55] | 100 | 100 | 100 | 100 | 100 | 100 | 90 | 100 | 100 | 100 | 100 | – | 100 | 100 | 80 | 80 |
